The values that follow are results of earlier work, collected in US8323615B2, “Methods of processing multi-phasic dispersions” (Baxter International Inc., priority 2008, dated 2012).

Where a name gives a salt, the structure may show the parent alone. Read-outs that look alike come from different tables or passages of the source.

The conditions of data set [1]: ambient temperature such as 20-25° C.
Another data set concerns rats. To be noted: for LD50, cells marked "I": value followed by undefined mark "I".
Where [2] appears, read: rats, oral, all at once (acute toxicity), minimal amount reported in the literature.

In the case of `CC(Cl)(Cl)Cl` [1,1,1-trichloroethane], the “Sol. (solubility of water in the liquid)” value in data set [1] (unit not given) is given as 0.15 g/100 g; in data set [1] (parts per million by weight), 170 ppm. The LD50 with rats (setting [2]) was 9.6 g/kg body weight; in the data set on rats (rats, oral, all at once (acute toxicity), minimal amount reported in the literature, listed as 1,1,1-TCA), 16 g/kg body weight. On to `ClC=C(Cl)Cl` [1,1,2-trichloroethylene], for which the “Sol. (solubility of water in the liquid)” value in data set [1] (unit not given) is recorded as 0.11 g/100 g. In addition, the LD50 in the data set with rats (setting [2]) was 2.4 g/kg body weight. In the case of `FC(F)(Cl)C(F)(F)Cl` [1,2-dichlorotetrafluoroethane], the “Sol. (solubility of water in the liquid)” value in data set [1] (unit not given) is recorded as 0.13 g/100 g. In the data set on rats (setting [2]), the LD50 is recorded as 2.25 g/kg body weight. For the compound `OCC(F)(F)F` [2,2,2-trifluoroethanol], the LD50 with rats (setting [2]) is 0.24 g/kg body weight. For `C[S+](C)[O-]` [DMSO, dimethylsulfoxide], in the data set on rats (setting [2]), the LD50 is recorded as 18 g/kg body weight. Turning to `FC(F)(F)C(F)(F)C(F)(F)C(F)(F)N(C(F)(F)C(F)(F)C(F)(F)C(F)(F)F)C(F)(F)C(F)(F)C(F)(F)C(F)(F)F` [Fluorinert ® FC-43, perfluorotributylamine], the “Sol. (solubility of water in the liquid)” value in data set [1] (parts per million by weight) was 7 ppm. Further, the LD50 in the data set on rats (setting [2]) is on record as 10 g/kg body weight. As for `FC(F)(F)C(F)(F)C(F)(F)C(F)(F)C(F)(F)N(C(F)(F)C(F)(F)C(F)(F)C(F)(F)C(F)(F)F)C(F)(F)C(F)(F)C(F)(F)C(F)(F)C(F)(F)F` [Fluorinert ® FC-70, perfluorotriamylamine], the “Sol. (solubility of water in the liquid)” value in data set [1] (parts per million by weight) is reported as 8 ppm. Besides, the LD50 entry with rats (setting [2]) is on record as “NTO”. For `NC=O` [Formamide], the LD50 in the data set with rats (setting [2]) is on record as 5.5 g/kg body weight. In the case of `O=Cc1ccco1` [Furfural], the LD50 with rats (rat, in vivo, po) is 0.05 g/kg body weight. With `CC(F)(Cl)Cl` [Genesolv ® 2000 HFC-141b], the LD50 with rats (setting [2]) was above 5 g/kg body weight. `FC(F)CC(F)(F)F` [Genesolv ® S-F, 1,1,1,3,3-pentafluoropropane]: the “Sol. (solubility of water in the liquid)” value in data set [1] (parts per million by weight) is listed as 1600 ppm. Further, the “LD50, cells marked "I"” value in the data set with rats is given as above 200 I g/kg body weight. `FCC(F)(F)F` [Genetron ® HFC-134a]: in data set [1] (in %), the “Sol. (solubility of water in the liquid)” value is 0.11%. Besides, the “LD50, cells marked "I"” value in the data set on rats is given as 62 I g/kg body weight.

Regarding `OCC(O)CO` [Glycerol], the LD50 in the data set on rats (rat, in vivo, po) is 13 g/kg body weight. For `FC(C(F)C(F)(F)C(F)(F)F)C(F)(F)F` (stereo not drawn) [HFC-4310mee], the “Sol. (solubility of water in the liquid)” value in data set [1] (parts per million by weight) is on record as 400 ppm. Moreover, the “LD50, cells marked "I"” value in the data set with rats is 11 I g/kg body weight. With `CN1CCCC1=O` [N-methylpyrrolidone], in data set [1] (in %), the “Sol. (solubility of water in the liquid)” value is 100%. Besides, the LD50 in the data set on rats (setting [2]) is given as 4.15 g/kg body weight. Regarding `O=C(C(F)(F)C(F)(F)F)C(F)(C(F)(F)F)C(F)(F)F` [Novec ™ 1230, dodecafluoro-2-methylpentan-3-one], the “LD50, cells marked "I"” value in the data set on rats is on record as above 100 I g/kg body weight. Regarding `COC(F)(F)C(F)(F)C(F)(F)F` [Novec ™ HFE-7000, 1-methoxyheptafluoropropane], in data set [1] (parts per million by weight), the “Sol. (solubility of water in the liquid)” value was 60 ppm. Besides, in the data set on rats (setting [2]), the LD50 was above 2 g/kg body weight. On to `CCOC(F)(F)C(F)(F)C(F)(F)C(F)(F)F` [Novec ™ HFE-7200, ethoxynonafluorobutane], for which the “Sol. (solubility of water in the liquid)” value in data set [1] (parts per million by weight) is reported as 92 ppm. In addition, in the data set on rats (setting [2]), the LD50 is listed as above 5 g/kg body weight. `CCOC(F)(C(F)(F)C(F)(F)C(F)(F)F)C(F)(C(F)(F)F)C(F)(F)F` (stereo not drawn) [Novec ™ HFE-7500, 2-trifluoromethyl-3-ethoxydodecafluorohexane]: the LD50 in the data set with rats (setting [2]) is above 2 g/kg body weight. In the case of `FC(F)(F)C(F)(F)C(F)(F)C(F)(F)C(F)(F)C(F)(F)F` [PF-5060 & PF-5060DL], in the data set with rats (setting [2]), the LD50 is listed as above 5 g/kg body weight. `FC(F)(F)C(F)(F)C(F)(F)C(F)(F)C(F)(F)C(F)(F)F` [Perfluorohexane]: the “Sol. (solubility of water in the liquid)” value is listed as 0.03 g/100 g in data set [1] (unit not given) and 10 ppm in data set [1] (parts per million by weight). In the data set with rats (setting [2]), the LD50 is recorded as 5 g/kg body weight. For `O=S1(=O)CCCC1` [Sulfolane], the LD50 with rats (setting [2]) was 1.94 g/kg body weight.

For the compound `C1OCOCO1` [Trioxane], the “Sol. (solubility of water in the liquid), in words” value in data set [1] was “soluble”. Besides, the LD50 in the data set with rats (setting [2]) is reported as 3.2 g/kg body weight. As for `S=C=S` [carbon disulfide], the “Sol. (solubility of water in the liquid)” value in data set [1] (in %) was below 1%. For the same compound, in the data set with rats (rat, in vivo, po), the LD50 is recorded as 3.2 g/kg body weight. `ClC(Cl)(Cl)Cl` [carbon tetrachloride]: in data set [1] (unit not given), the “Sol. (solubility of water in the liquid)” value was 0.05 g/100 g. For the same compound, the LD50 with rats (setting [2]) is 2.3 g/kg body weight. With `CCOC(=O)C(=O)OCC` [diethyl oxalate], the LD50 in the data set with rats (rat, in vivo, po) was 0.4 g/kg body weight.

On to `COCCOCCO` [diethylene glycol methyl ether], for which the “Sol. (solubility of water in the liquid)” value in data set [1] (in %) is 100%. `OCCOCCO` [diethylene glycol]: the LD50 in the data set on rats (setting [2]) is recorded as 13 g/kg body weight.

With `c1ccc(Oc2ccccc2)cc1` [diphenyl ether], in the data set on rats (setting [2]), the LD50 is 3.37 g/kg body weight. Turning to `O=C1OCCO1` [ethylene carbonate], the LD50 in the data set on rats (setting [2]) is recorded as 10 g/kg body weight. With `OCCOCc1ccccc1` [ethylene glycol monobenzyl ether], the “Sol. (solubility of water in the liquid)” value in data set [1] (unit not given) is 4 g/100 g. Further, the LD50 in the data set with rats (setting [2]) is given as 1.19 g/kg body weight. Take `OCc1ccco1` [furfuryl alcohol]: the LD50 in the data set on rats (rat, in vivo, po) is reported as 0.275 g/kg body weight.

On to `O=C1CCCO1` [gamma-butyrolactone], for which the LD50 in the data set with rats (rat, in vivo, po) is reported as 1.54 g/kg body weight. As for `COC(=O)C(C)O` (stereo not drawn) [lactic acid, methyl ester], the “Sol. (solubility of water in the liquid), in words” value in data set [1] was “decomp”. Besides, the LD50 in the data set on rats (setting [2]) is 2 g/kg body weight. For `CC(O)C(=O)O` (stereo not drawn) [lactic acid], the LD50 is 3.7, 3.5 g/kg body weight in the data set with rats (rat, in vivo, po) and 3.7, 3.5 g/kg body weight in the data set with rats (setting [2]). Take `ClCCl` [methylene chloride]: the “Sol. (solubility of water in the liquid)” value in data set [1] (unit not given) was 1.32 g/100 g. Further, the LD50 in the data set with rats (setting [2]) is 1.6 g/kg body weight. On to `Fc1cc(F)c(F)c(F)c1F` [pentafluorobenzene], for which the LD50 in the data set with rats (rat, in vivo, po) was 2 g/kg body weight. Regarding `OCC(F)(F)C(F)(F)F` [pentafluoropropyl alcohol], the “Sol. (solubility of water in the liquid), in words” value in data set [1] was “soluble”. The LD50 in the data set with rats (setting [2]) is listed as 1 g/kg body weight. For `CC1COC(=O)O1` (stereo not drawn) [propylene carbonate], the “Sol. (solubility of water in the liquid)” value in data set [1] (in %) was 23%. Moreover, in the data set with rats (setting [2]), the LD50 is 29 g/kg body weight.

For `CC(O)CO` (stereo not drawn) [propylene glycol], the LD50 in the data set with rats (setting [2]) was 22 g/kg body weight.

Turning to “methoxynonafluorobutane [Novec ™ HFE-7100]”, the “Sol. (solubility of water in the liquid)” value in data set [1] (parts per million by weight) is 95 ppm. Further, the LD50 with rats (setting [2]) is above 5 g/kg body weight. As for “tetrahydrofurfuryl alcohol polyethyleneglycol ether [Glycofurol]”, the “Sol. (solubility of water in the liquid)” value in data set [1] (in %) is above 50%. Moreover, the LD50 in the data set on rats (setting [2]) is reported as 7.8 g/kg body weight.

Turning to trimethylene glycol, the LD50 in the data set on rats (rat, in vivo, po) is given as 4.77 g/kg body weight.
